Measurements taken from US11041000B2, “Peptide inhibitors of interleukin-23 receptor and their use to treat inflammatory diseases” (priority 2019, dated 2021).
Bridge positions count the residues as written; N and C are the ends. Square brackets hold non-standard residues; d marks the D form. Peptide text beside a SMILES is read from it. Trp(7-Me) = Cc1cccc2c(C[C@H](N)C(=O)O)c[nH]c12; 2Nal = N[C@@H](Cc1ccc2ccccc2c1)C(=O)O; AEF = NCCOc1ccc(C[C@H](N)C(=O)O)cc1; Cit = NC(=O)NCCC[C@H](N)C(=O)O; αMeL = CC(C)C[C@](C)(N)C(=O)O; Pen = CC(C)(S)[C@H](N)C(=O)O; αMeK = C[C@](N)(CCCCN)C(=O)O; Aib = CC(C)(N)C(=O)O; βAla = NCCC(=O)O; Sar = CNCC(=O)O

Tests used:
[1] = target: IL-23R-expressing DB cells (Homo sapiens, UniProt Q5VWK5); experiment: DB cells IL23R pSTAT3 cell assay (pStat3HTRF); type: cell-based; conditions: DB cells stimulated with IL-23 0.5 nM, 30 minutes, phospho-STAT3 in cell lysates; read-out: pStat3 HTRF
Sequence of IL-23R-expressing DB cells (Q5VWK5 24-629 limits assumed): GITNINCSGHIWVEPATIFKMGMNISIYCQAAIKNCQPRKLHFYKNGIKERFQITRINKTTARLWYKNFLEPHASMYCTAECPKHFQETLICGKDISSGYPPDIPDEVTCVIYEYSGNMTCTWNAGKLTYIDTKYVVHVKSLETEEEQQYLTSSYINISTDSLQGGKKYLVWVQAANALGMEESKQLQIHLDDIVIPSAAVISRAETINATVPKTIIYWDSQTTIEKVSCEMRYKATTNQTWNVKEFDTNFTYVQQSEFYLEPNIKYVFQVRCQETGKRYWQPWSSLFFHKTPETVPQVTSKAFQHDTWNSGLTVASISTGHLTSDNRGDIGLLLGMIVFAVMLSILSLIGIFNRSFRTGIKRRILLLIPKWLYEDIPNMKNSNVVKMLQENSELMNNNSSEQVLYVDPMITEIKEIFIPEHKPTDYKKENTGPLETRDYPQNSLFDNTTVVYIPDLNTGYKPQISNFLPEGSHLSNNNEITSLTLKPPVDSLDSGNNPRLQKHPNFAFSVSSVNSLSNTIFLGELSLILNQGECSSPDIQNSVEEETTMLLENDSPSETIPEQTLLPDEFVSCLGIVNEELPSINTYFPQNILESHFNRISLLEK
From the text: Human ELISA indicates the IL23-IL23R competitive binding assay described below, Rat ELISA indicates the rat IL-23R competitive binding ELISA assay described below, and pStat3HTRF indicates the DB cells IL-23R pSTAT3 cell assay described below. The peptides depicted in Table E1 are cyclized via a disulfide bridge formed between two Pen residues in these peptides. The peptides depicted in Table E2 are cyclized via a thioether bond between the indicated amino acid residues. Table E2 provides an illustrative structure depicting thioether cyclization, which is indicated in the table by the term “cyclo,” with the cyclic region bracketed immediately following the term “cyclo.” For certain peptides, the residue Abu is present where indicated, whereas in other embodiments, e.g., those related to the non-cyclized form, the Abu may be referred to as a hSer(Cl) or homoSer residue. The petpides depicted in Table E3 are cyclized via a disulfide bridge formed between two Pen residues or a thioether bond between Abu and Cys.
IL-23 plays a central role in supporting and maintaining Th17 differentiation in vivo. This process is thought to be mediated primarily through the Signal Transducer and Activator of Transcription 3 (STAT3), with phosphorylation of STAT3 (to yield pSTAT3) leading to upregulation of RORC and pro-inflammatory IL-17. This cell assay examines the levels of pSTAT3 in IL-23R-expressing DB cells when stimulated with IL-23 in the presence of test compounds. Serial dilutions of test peptides and IL-23 (Humanzyme #HZ-1261) at a final concentration of 0.5 nM, were added to each well in a 96 well tissue culture plate (Corning #CLS3894). DB cells (ATCC #CRL-2289), cultured in RPMI-1640 medium (Thermo Scientific #11875093) supplemented with 10% FBS, were added at 5×10E5 cells/well and incubated for 30 minutes at 37° C. in a 5% CO2 humidified incubator. Changes in phospho-STAT3 levels in the cell lysates were detected using the Cisbio HTRF pSTAT3 (Tyr705) Cellular Assay Kit (Cisbio #62AT3PEH), according to manufacturer's Two Plate Assay protocol.

[2] = Stability in cynomolgus monkey fecal homogenate; type: in vitro ADME; conditions: 20% fecal homogenate (supernatant), anaerobic, pH 6.8, 20% cynomolgus monkey fecal homogenate, 37° C., read-out: t½: Monkey Feces anaerobic (converted)
Procedure: (§1) Centrifuged the homogenate at 2800×g for 15 min. The supernatant is taken out and used for incubations. […] The final test compound concentration was 20 μM.

[3] = Stability in human fecal homogenate; type: in vitro ADME; conditions: 20% fecal homogenate (supernatant), pH 6.8, 20% human fecal homogenate, anaerobic, 37° C., read-out: t½: Human Feces anaerobic (converted)
Procedure: as §1

Stability in rat plasma = type: in vitro ADME; conditions: both sexes, SD rat plasma, EDTA, 37° C., read-out: t½: Rat Plasma EDTA (converted)
[4] = Stability in simulated intestinal fluid (SIF); type: in vitro ADME; conditions: simulated intestinal fluid with pancreatin, pH 6.8, 37° C., matrix is 100 fold dilution of standard SIF concentration; for SIF t½: 20 μM; for half-life at 20 μM: read-out: SIF t½ (converted)

Row | SMILES | IC50 [1] | half-life at 20 μM ([2]; cynomolgus monkey) | half-life at 20 μM [3] | half-life at 20 μM [2] | half-life at 20 μM (Stability in rat plasma) | SIF t½ [4] | half-life at 20 μM [4]
1 | CC(=O)NCCCC[C@H](NC(=O)[C@](C)(CC(C)C)NC(=O)[C@H](Cc1ccc2ccccc2c1)NC(=O)[C@H](Cc1ccc(OCCN)cc1)NC(=O)[C@H]1NC(=O)[C@H](CCC(N)=O)NC(=O)[C@H](Cc2c[nH]c3c(C)cccc23)NC(=O)[C@H]([C@@H](C)O)NC(=O)[C@H](CC(N)=O)NC(=O)[C@@H](NC(C)=O)C(C)(C)SSC1(C)C)C(=O)N1CCC[C@H]1C(=O)NCCC(N)=O [compound 211] | 178 nM | > 24 h | 10 h | – | – | – | –
2 | CC(=O)NCCCC[C@H](NC(=O)[C@](C)(CCCCN)NC(=O)[C@H](Cc1ccc2ccccc2c1)NC(=O)[C@H](Cc1ccc(OCCN)cc1)NC(=O)[C@H]1NC(=O)[C@H](CCC(N)=O)NC(=O)[C@H](Cc2c[nH]c3c(C)cccc23)NC(=O)[C@H]([C@@H](C)O)NC(=O)[C@H](CC(N)=O)NC(=O)[C@@H](NC(C)=O)C(C)(C)SSC1(C)C)C(=O)N[C@@H](CC(N)=O)C(=O)NCCC(N)=O [compound 202] | 1.1 nM | – | – | 10 h | – | – | –
3 | CC(=O)NCCCC[C@H](NC(=O)[C@](C)(CCCCN)NC(=O)[C@H](Cc1ccc2ccccc2c1)NC(=O)[C@H](Cc1ccc(OCCN)cc1)NC(=O)[C@H]1NC(=O)[C@H](CCC(N)=O)NC(=O)[C@H](Cc2c[nH]c3c(C)cccc23)NC(=O)[C@H]([C@@H](C)O)NC(=O)[C@H](CC(N)=O)NC(=O)[C@@H](NC(C)=O)C(C)(C)SSC1(C)C)C(=O)N[C@@H](CC(N)=O)C(=O)NCCC(N)=O [compound 267] | 0.506 nM | – | > 24 h | – | > 24 h | – | –
4 | CC(=O)NCCCC[C@@H]1NC(=O)[C@H](Cc2c[nH]c3c(C)cccc23)NC(=O)[C@H]([C@@H](C)O)NC(=O)[C@H](CO)NC(=O)[C@@H](NC(C)=O)C(C)(C)SSC(C)(C)[C@@H](C(=O)N[C@@H](Cc2ccc(OCCN)cc2)C(=O)N[C@@H](Cc2ccc3ccccc3c2)C(=O)N[C@@](C)(CCCCN)C(=O)N[C@@H](CCCCNC(C)=O)C(=O)N[C@@H](CC(N)=O)C(=O)N[C@H](CC(C)C)C(N)=O)NC1=O [compound 334] (Ac-[Pen]ST[Trp(7-Me)]K(Ac)[Pen][AEF][2Nal][αMeK]K(Ac)N[dL]-NH2; disulfide 1-6) | – | – | > 24 h | > 24 h | > 24 h | 24 h | –
5 | CC(=O)NCCCC[C@@H]1NC(=O)[C@H](Cc2c[nH]c3c(C)cccc23)NC(=O)[C@H]([C@@H](C)O)NC(=O)[C@H](CC(C)C)NC(=O)[C@@H](NC(C)=O)C(C)(C)SSC(C)(C)[C@@H](C(=O)N[C@@H](Cc2ccc(OCCN)cc2)C(=O)N[C@@H](Cc2ccc3ccccc3c2)C(=O)N[C@@](C)(CCCCN)C(=O)N[C@@H](CCCCNC(C)=O)C(=O)N[C@@H](CC(N)=O)C(=O)N[C@H](CC(C)C)C(N)=O)NC1=O [compound 332] (Ac-[Pen]LT[Trp(7-Me)]K(Ac)[Pen][AEF][2Nal][αMeK]K(Ac)N[dL]-NH2; disulfide 1-6) | – | – | > 24 h | > 24 h | > 24 h | 24 h | –
6 | CC(=O)NCCCC[C@H](NC(=O)[C@](C)(CCCCN)NC(=O)[C@H](Cc1ccc2ccccc2c1)NC(=O)[C@H](Cc1ccc(OCCN)cc1)NC(=O)[C@H]1NC(=O)[C@H](CCCNC(N)=O)NC(=O)[C@H](Cc2c[nH]c3c(C)cccc23)NC(=O)[C@H]([C@@H](C)O)NC(=O)[C@H](CC(N)=O)NC(=O)[C@@H](NC(C)=O)C(C)(C)SSC1(C)C)C(=O)N[C@@H](CC(N)=O)C(=O)NC(C)(C)C(=O)N[C@@H](C)C(N)=O [compound 342] (Ac-[Pen]NT[Trp(7-Me)][Cit][Pen][AEF][2Nal][αMeK]K(Ac)N[Aib]A-NH2; disulfide 1-6) | – | – | 12 h | 15 h | > 24 h | – | 16 h
7 | CC(=O)NCCCC[C@@H]1NC(=O)[C@H](Cc2c[nH]c3c(C)cccc23)NC(=O)[C@H]([C@@H](C)O)NC(=O)[C@@H]2CCCN2C(=O)[C@@H](NC(C)=O)C(C)(C)SSC(C)(C)[C@@H](C(=O)N[C@@H](Cc2ccc(OCCN)cc2)C(=O)N[C@@H](Cc2ccc3ccccc3c2)C(=O)N[C@@](C)(CCCCN)C(=O)N[C@@H](CCCCNC(C)=O)C(=O)N[C@@H](CC(N)=O)C(=O)N[C@H](CC(C)C)C(N)=O)NC1=O [compound 333] (Ac-[Pen]PT[Trp(7-Me)]K(Ac)[Pen][AEF][2Nal][αMeK]K(Ac)N[dL]-NH2; disulfide 1-6) | – | – | > 24 h | 24 h | > 24 h | – | 22 h
8 | CC(=O)NCCCC[C@@H]1NC(=O)[C@H](Cc2c[nH]c3c(C)cccc23)NC(=O)[C@H]([C@@H](C)O)NC(=O)CNC(=O)[C@@H](NC(C)=O)C(C)(C)SSC(C)(C)[C@@H](C(=O)N[C@@H](Cc2ccc(OCCN)cc2)C(=O)N[C@@H](Cc2ccc3ccccc3c2)C(=O)N[C@@](C)(CCCCN)C(=O)N[C@@H](CCCCNC(C)=O)C(=O)N[C@@H](CC(N)=O)C(=O)N[C@H](CC(C)C)C(N)=O)NC1=O [compound 329] (Ac-[Pen]GT[Trp(7-Me)]K(Ac)[Pen][AEF][2Nal][αMeK]K(Ac)N[dL]-NH2; disulfide 1-6) | – | – | > 24 h | > 24 h | > 24 h | – | 12 h
9 | CC(=O)NCCCC[C@H](NC(=O)[C@](C)(CCCCN)NC(=O)[C@H](Cc1ccc2ccccc2c1)NC(=O)[C@H](Cc1ccc(OCCN)cc1)NC(=O)[C@H]1NC(=O)[C@H](CCCNC(N)=O)NC(=O)[C@H](Cc2c[nH]c3c(C)cccc23)NC(=O)[C@H]([C@@H](C)O)NC(=O)[C@H](CC(N)=O)NC(=O)[C@@H](NC(C)=O)C(C)(C)SSC1(C)C)C(=O)N[C@@H](CC(N)=O)C(=O)N(C)CC(N)=O [compound 339] (Ac-[Pen]NT[Trp(7-Me)][Cit][Pen][AEF][2Nal][αMeK]K(Ac)N[Sar]-NH2; disulfide 1-6) | – | – | > 24 h | 18 h | > 24 h | 24 h | –
10 | CC(=O)NCCCC[C@H](NC(=O)[C@](C)(CC(C)C)NC(=O)[C@H](Cc1ccc2ccccc2c1)NC(=O)[C@H](Cc1ccc(OCCN)cc1)NC(=O)[C@H]1NC(=O)[C@H](CCCNC(N)=O)NC(=O)[C@H](Cc2c[nH]c3c(C)cccc23)NC(=O)[C@H]([C@@H](C)O)NC(=O)[C@H](CC(N)=O)NC(=O)[C@@H](NC(C)=O)C(C)(C)SSC1(C)C)C(=O)N[C@@H](CC(N)=O)C(=O)NCCC(N)=O [compound 227] (Ac-[Pen]NT[Trp(7-Me)][Cit][Pen][AEF][2Nal][αMeL]K(Ac)N[βAla]-NH2; disulfide 1-6) | 0.702 nM | > 24 h | > 24 h | – | – | – | –
11 | CC(=O)NCCCC[C@@H]1NC(=O)[C@H](Cc2c[nH]c3c(C)cccc23)NC(=O)[C@H]([C@@H](C)O)NC(=O)[C@H](CC(N)=O)NC(=O)[C@@H](NC(C)=O)C(C)(C)SSC(C)(C)[C@@H](C(=O)N[C@@H](Cc2ccc(OCCN)cc2)C(=O)N[C@@H](Cc2ccc3ccccc3c2)C(=O)N[C@@](C)(CCCCN)C(=O)N[C@@H](CCCCNC(=O)CC(F)(F)F)C(=O)N[C@@H](CC(N)=O)C(=O)N[C@H](CC(C)C)C(N)=O)NC1=O [compound 360] | – | – | > 24 h | > 24 h | > 24 h | 24 h | –
